Measurements as given in patent publication US20200276217A1 (priority 2017, published 2020).

How the values were obtained:
[1] = system: A/WSN33/H1N1 influenza virus; experiment: Prophylactic treatment of influenza-infected mice, lung index; settings: 50 mg/kg intragastric, from two days before infection and 5 days after; 40 LD50 via nasal dripping; compared with 50 mg/kg ribavirin; FIG. 4
Source text: […] Barb/C mice (6- to 8-week old) were randomly divided into 4 groups (A, B, C, D) with 5 mice in each group. All animals were marked by ear clipping and then treated with a specified preparation. Group A was a blank control group, Group B was a group in which PBS was used to resist virus infection, Group C was a group in which ribavirin was used to resist virus infection, and Group D was a group in which azithromycin was used to resist virus infection. Two days before the drugs being used to resist virus infection, the mice were treated with 50 mg/kg ribavirin and 50 mg/kg azithromycin by intragastric administration, and were infected with the influenza virus via nasal dripping with a dose of 40 LD50 (10^3 PFU/ml) on the third day (50 μl/mouse), and PBS was administered instead in the blank control group. The mice were administered consecutively for 5 days after virus infection, and the administration method was same as above. After 12 hours of fasting and water deprivation, the body weights were weighed, the lungs were incised aseptically and weighed after the mice were sacrificed by eyeball extirpating, and the lung indexes were calculated so as to evaluate the protective effect of azithromycin for mice in influenza virus infection, in which the calculation method of the lung index was a conventional calculation method known in the art.

[2] = system: HA/NA-HIVLuc pseudovirus; assay type: cell-based, influenza virus; settings: A549 cells, pre-incubated 8 h with concentration gradients, relative to absolute ethyl alcohol, FIG. 5
[3] = biological target: RNA polymerase of influenza virus (Influenza A virus, UniProt P03428+P03431+P03433); assay type: cell-based
[4] = system: IAV-Luc influenza virus (A/Puerto Rico/8/34(PR8)-Luc); assay type: cell-based; settings: 10 μM, A549 cells, three treatment schemes, detection after 24 h, FIG. 7
[5] = system: influenza A virus A/Puerto Rico/8/34(PR8)-Luc (IAV-Luc); assay type: cell-based

azithromycin
protective effect for mice in influenza virus infection (lung index) [1]: better protective effect for mice in influenza virus infection as compared with ribavirin | inhibition of influenza virus (pseudovirus) infection at various concentrations [2]: inhibited influenza virus infection and the inhibitory effect was concentration-dependent | effect on the replication of the RNA polymerase of influenza virus [3]: did not affect the replication of the RNA polymerase of influenza virus | site of antiviral action (host cell versus virus particles) [4]: exerted antiviral effect mainly by acting on the virus particles | ability to resist influenza virus infection (infection rate relative to absolute ethyl alcohol control) [5]: had the ability to resist influenza virus infection | efficacy against influenza virus infection compared among the macrolide antibiotics ([5]; 10 μM, A549 cells, FIG. 1): had the strongest efficacy | inhibitory effect against influenza virus infection in the screening of small molecule compounds ([5]; 10 μM, A549 cells, FIG. 2): quite strong inhibitory effect against influenza virus infection | ability to resist influenza virus infection compared with oseltamivir ([5]; same concentration (10 μM), A549 cells, FIG. 3): stronger than that of oseltamivir

erythromycin
ability to resist influenza virus infection (infection rate relative to absolute ethyl alcohol control) [5]: had the ability to resist influenza virus infection

midecamycin
ability to resist influenza virus infection (infection rate relative to absolute ethyl alcohol control) [5]: had the ability to resist influenza virus infection

roxithromycin
ability to resist influenza virus infection (infection rate relative to absolute ethyl alcohol control) [5]: had the ability to resist influenza virus infection
